Test results taken from US20130287854A1, “COMPOSITIONS AND USES” (VECTURA LIMITED, priority 2010, published 2013).

Columns and labels:
[1] = tested on: Parkinson's disease patients; assay: Therapeutic effect of apomorphine by pulmonary inhalation in a clinical trial; type: in vivo, human
[2] = tested on: Parkinson's disease patients; details: subcutaneous injection, marketing literature; cited from earlier work
[3] = cited from earlier work
[4] = human, in vivo
[5] = tested on: patients with PD; details: subcutaneous, 11/16 patients; cited from earlier work
[6] = tested on: male erectile dysfunction patients; assay: VR004/008 Phase IIb study, male erectile dysfunction; type: in vivo, human; details: a couple of patients receiving 310 μg and 430 μg doses
Method: In contrast, in a recent clinical study relating to male erectile dysfunction (VR004/008 Phase IIb study), the majority of patients reported that the duration of action lasted between 2 to 10 minutes, although a couple of patients receiving 310 μg and 430 μg doses did report that the duration of action lasted over 30 minutes.=

[7] = tested on: patients with PD; details: subcutaneous, cited from earlier work

CN1CCc2cccc3c2[C@H]1Cc1ccc(O)c(O)c1-3 [apomorphine]
onset of the therapeutic effect (conversion) ([1]; majority of patients, after inhaling): ≤ 10 min | mean duration of the therapeutic effect ([1]; pulmonary inhalation, in a clinical trial): 75 min | conversion from the off to the on state, quickest reported ([1]; some patients, pulmonary inhalation): 2 min | patients with improved movement within 20 minutes post dose [2]: 90% | dose linearity of pharmacokinetics ([3]; dose range of 2 to 8 mg, single subcutaneous injection into the abdominal wall, idiopathic Parkinson's disease): linear pharmacokinetics | Tmax ([3]; nasal administration): approximately 15 minutes | Tmax, fastest observed [4]: 1 min | patients reporting incidences of dyskinesia [5]: 69% | duration of action [6]: over 30 minutes | patients reporting an increased dyskinesia severity compared to baseline ([7]; 15 of 20 patients): 75% | patients reporting signs of dyskinesia ([7]; active group, FIG. 14): 35% | mean daily duration of on state with non-troublesome dyskinesia and troublesome dyskinesias ([7]; active group): 0.24 h | change in the mean daily period asleep from the baseline ([7]; active treatment group): 0.10 h | mean time to reach therapeutic effect ([7]; active treatment group): 22.2 min
